The text below walks through data of patent US10399932B2, “Inhibitors of indoleamine-2,3-dioxygenase for the treatment of cancer” (BRISTOL-MYERS SQUIBB COMPANY, priority 2015, dated 2019).

pIC50: −log10 of the molar value.

The first test deals with T1, human IDO1 (Homo sapiens, UniProt P14902). Briefly: Assessment of human IDO-1 inhibitory activity in HEK cells (human IDO1/HEK293 cells, Ehrlich reagent, absorbance at 490 nm). In kind it is cell-based. On the set-up: expressed in transfected cells. The following applies: In Vitro Potency in the HEK Human IDO-1 Cellular Assay. Summed up: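 Stable human IDO1-expressing HEK293 cells treated with compound for 20 h at 37 °C in phenol red-free RPMI/10% FBS. Stopped with 0.2% TCA (final) and heated 30 min at 50 °C; supernatant mixed with Ehrlich reagent, absorbance read at 490 nm. IC50 normalised to DMSO (0%) and 500 nM reference standard (100% inhibition).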
T1 sequence (P14902 whole entry): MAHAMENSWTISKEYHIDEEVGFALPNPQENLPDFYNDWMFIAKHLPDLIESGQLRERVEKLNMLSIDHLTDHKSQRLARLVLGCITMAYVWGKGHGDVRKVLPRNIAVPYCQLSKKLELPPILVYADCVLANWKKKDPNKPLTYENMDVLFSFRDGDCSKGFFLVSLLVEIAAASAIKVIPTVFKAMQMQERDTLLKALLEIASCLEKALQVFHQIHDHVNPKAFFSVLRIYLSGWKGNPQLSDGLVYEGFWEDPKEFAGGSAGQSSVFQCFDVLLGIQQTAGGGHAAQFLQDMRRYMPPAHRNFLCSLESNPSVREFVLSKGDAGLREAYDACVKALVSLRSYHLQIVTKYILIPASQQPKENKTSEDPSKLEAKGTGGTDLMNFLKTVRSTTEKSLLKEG
For `Cc1cc(NC(=O)Nc2cc(C(CC(=O)O)C3CC3)ccc2N(CC(C)C)C2CCOCC2)no1` (single isomer, unassigned) [Example 1201 Enantiomer 2, 3-Cyclopropyl-3-(4-(isobutyl(tetrahydro-2H-pyran-4-yl)amino)-3-(3-(5-methylisoxazol-3-yl)ureido)phenyl)propanoic acid], the pIC50 was above 7.30. Consider `CCOc1ccc(NC(=O)Nc2cc(C(CC(=O)O)C3CC3)ccc2N(CC(C)C)C2CCOCC2)cc1` (single isomer, unassigned) [Example 1205 Enantiomer 2, 3-Cyclopropyl-3-(3-(3-(4-ethoxyphenyl)ureido)-4-(isobutyl(tetrahydro-2H-pyran-4-yl)amino)phenyl)propanoic acid], for which the pIC50 is above 7.30.

Regarding `CC(C)CN(c1ccc(C(CC(=O)O)C2CC2)cc1NC(=O)Nc1cncnc1)C1CCOCC1` (single isomer, unassigned) [Example 1207 Enantiomer 2, 3-Cyclopropyl-3-(4-(isobutyl(tetrahydro-2H-pyran-4-yl)amino)-3-(3-(pyrimidin-5-yl)ureido)phenyl)propanoic acid], the pIC50 was below 7.30.

Compound `COCC(CC(=O)O)c1ccc(N(CC(C)C)C2CCOCC2)c(NC(=O)Nc2ccc(OC(F)(F)F)cc2)c1` (single isomer, unassigned) [Example 1218, 3-(4-(Isobutyl(tetrahydro-2H-pyran-4-yl)amino)-3-(3-(4-(trifluoromethoxy)phenyl)ureido)phenyl)-4-methoxybutanoic acid] gave a pIC50 below 7.30. Same read-out and setting: as for `CCOc1ccc(NC(=O)Nc2cc(C(COC)CC(=O)O)ccc2N(CC(C)C)C2CCOCC2)cc1` (single isomer, unassigned) [Example 1219, 3-(3-(3-(4-Ethoxyphenyl)ureido)-4-(isobutyl(tetrahydro-2H-pyran-4-yl)amino)phenyl)-4-methoxybutanoic acid], the figure is below 7.30; as for `COCC(CC(=O)O)c1ccc(N(CC(C)C)C2CCOCC2)c(NC(=O)Nc2cc(C)on2)c1` (single isomer, unassigned) [Example 1220, 3-(4-(Isobutyl(tetrahydro-2H-pyran-4-yl)amino)-3-(3-(5-methylisoxazol-3-yl)ureido)phenyl)-4-methoxybutanoic acid], below 7.30. On the same count and under the same terms, under `COCC(CC(=O)O)c1ccc(N(CC(C)C)C2CCCCC2)c(NC(=O)Nc2ccc(OC)cc2F)c1` (single isomer, unassigned) [Example 1239, 3-(4-(Cyclohexyl(isobutyl)amino)-3-(3-(2-fluoro-4-methoxyphenyl)ureido)phenyl)-4-methoxybutanoic acid] stands above 8.30; under `COCC(CC(=O)O)c1ccc(N(CC(C)C)C2CCCCC2)c(NC(=O)Cc2ccc(C)cc2)c1` (single isomer, unassigned) [Example 1240, 3-(4-(Cyclohexyl(isobutyl)amino)-3-(2-(p-tolyl)acetamido)phenyl)-4-methoxybutanoic acid], above 7.30. Still for that read-out and setting: under `CCOc1ccc(CC(=O)Nc2cc(C(COC)CC(=O)O)ccc2N(CC(C)C)C2CCCCC2)cc1` (single isomer, unassigned) [Example 1242, 3-(4-(Cyclohexyl(isobutyl)amino)-3-(2-(4-ethoxyphenyl)acetamido)phenyl)-4-methoxybutanoic acid] stands above 7.30; under `COCC(CC(=O)O)c1ccc(N(CC(C)C)C2CCCCC2)c(NC(=O)Cc2ccc(Cl)cc2F)c1` (single isomer, unassigned) [Example 1246, 3-(3-(2-(4-Chloro-2-fluorophenyl)acetamido)-4-(cyclohexyl(isobutyl)amino)phenyl)-4-methoxybutanoic acid], above 8.30; under `Cc1ccc(CC(=O)Nc2cc(C(CC(=O)O)C3CC3)ccc2N(CC(C)C)C2CCCCC2)cc1` (single isomer, unassigned) [Example 1249, 3-(4-(Cyclohexyl(isobutyl)amino)-3-(2-(p-tolyl)acetamido)phenyl)-3-cyclopropylpropanoic acid], above 8.30. In turn, `CCOc1ccc(CC(=O)Nc2cc(C(CC(=O)O)C3CC3)ccc2N(CC(C)C)C2CCCCC2)cc1` (single isomer, unassigned) [Example 1250, 3-(4-(Cyclohexyl(isobutyl)amino)-3-(2-(4-ethoxyphenyl)acetamido)phenyl)-3-cyclopropylpropanoic acid] gave a pIC50 above 8.30. In turn, `Cc1cc(CC(=O)Nc2cc(C(CC(=O)O)C3CC3)ccc2N(CC(C)C)C2CCCCC2)no1` (single isomer, unassigned) [Example 1252, 3-(4-(Cyclohexyl(isobutyl)amino)-3-(2-(5-methylisoxazol-3-yl)acetamido)phenyl)-3-cyclopropylpropanoic acid] showed a pIC50 above 7.30.

In another test the target is T1, human IDO1. The test can be described thus: Assessment of human IDO-1 inhibitory activity in Hela cells (Interferon-gamma activated, Ehrlich reagent, absorbance at 490 nm). In kind it is cell-based. On the set-up: endogenous in cells; host or cells: HeLa cells stimulated with interferon-gamma. The following applies: 18 hours. As for the experimental part: Exemplary compounds were tested for inhibition of IDO activity.
HeLa cells were seeded at 20,000 cells per 30 µL per well with RPMI/phenol red free media containing 10% FBS in a 384-well tissue culture plate (black with clear bottoms). 50 nL of compound was added to cells and incubated at 37° C. for one hour. 20 μL of the recombinant human Interferon-gamma (R&D System, Cat. #285-IF, at final concentration of 10 ng/ml) or recombinant murine Interferon-gamma (PEPROTECH® Inc., Cat. #315-05, final concentration of 5 ng/ml) was added to activate IDO signaling. The cells were incubated for 18 hours in 37° C. incubator with 5% CO2.
Compound treatment was stopped by adding 5 μl trichloroacetic acid to a final concentration of 3%. Subsequently, the cell plate was further incubated at 50° C. for 30 minute. An equal volume supernatant (20 μL) and 2% (w/v) Ehrlich reagent (4-dimethylaminobenzaldehyde) in glacial acetic acid were mixed in a new clear bottom 384-well plate. This plate was incubated at room temperature for 30 minutes. Absorbance at 490 nm was measured on Envision plate reader.
Compound IC50 values were calculated using counts from unstimulated (no INF-gamma treatment) wells as 100% inhibition. INF-gamma treatment without compound treatment as 0% inhibition.
For “3-(3-((4-cyanophenyl)amino)-4-(ethyl (tetrahydro-2H-pyran-4-yl)amino) phenyl)-3-methylpentanoic acid [Example 27]”, the pIC50 is above 8.30. For “3-(4-((1,1-dioxidotetrahydro-2H-thiopyran-4-yl)(ethyl)amino)-3-((4-fluorophenyl)amino)phenyl)-4-isopropoxybutanoic acid [Example 340]”, the pIC50 was above 7.30. On the same count and under the same terms, under “3-(5-((4-chlorophenyl) amino)-4-(ethyl(tetrahydro- 2H-pyran-4-yl)amino)-2- fluorophenyl)-4- methoxybutanoic acid [Example 852]” stands above 7.30; under `COCC(CC(=O)O)c1ccc(N2C[C@@H](C)O[C@@H](C)C2)c(Nc2ccc(C#N)cc2)c1` (single isomer, unassigned) [602 E2], below 7.30. `CCOc1ncc(Nc2cc(C(CC)CC(=O)O)ccc2N(CC)C2CCOC2)cn1` (single isomer, unassigned) [947 D1]: the pIC50 is above 7.30.

For the compound `CCOc1ncc(Nc2cc(C(CC)CC(=O)O)ccc2N(CC)C2CCOC2)cn1` (single isomer, unassigned) [947 D2], the pIC50 was above 7.30. The same measure, in the same setting: as for `CCC(CC(=O)O)c1ccc(N(CC)C2CCOC2)c(NC(=O)Nc2ccc(Cl)cc2F)c1` (single isomer, unassigned) [948 D1], the figure is above 7.30; as for `CCC(CC(=O)O)c1ccc(N(CC)C2CCOC2)c(NC(=O)Nc2ccc(Cl)cc2F)c1` (single isomer, unassigned) [948 D2], above 7.30.

As to `CCOc1ncc(Nc2cc(C(CC)CC(=O)O)ccc2N2CCOCC2)cn1` (single isomer, unassigned) [Example 7 Enantiomer 1, 3-(3-((2-Ethoxypyrimidin-5-yl)amino)-4-morpholinophenyl)pentanoic acid], the pIC50 was below 7.30. Same read-out and setting: as for `CCCN(c1ccc(C(CC)CC(=O)O)cc1Nc1ccc(C#N)cc1)C1CCS(=O)(=O)CC1` (single isomer, unassigned) [Example 12 Enantiomer 2, 3-(3-((4-Cyanophenyl)amino)-4-((1,1-dioxidotetrahydro-2H-thiopyran-4-yl)(propyl)amino)phenyl)pentanoic acid], the figure is above 8.30; as for `CCCN(c1ccc(C(CC)CC(=O)O)cc1Nc1cnc(OCC)nc1)C1CCS(=O)(=O)CC1` (single isomer, unassigned) [Example 13 Enantiomer 2, 3-(4-((1,1-Dioxidotetrahydro-2h-thiopyran-4-yl)(propyl)amino)-3-((2-ethoxypyrimidin-5-yl)amino)phenyl)pentanoic acid], above 7.30; as for `CCCN(c1ccc(C(CC)CC(=O)O)cc1NC(=O)Nc1ccc(C)cc1)C1CCS(=O)(=O)CC1` (single isomer, unassigned) [Example 14 Enantiomer 2, 3-(4-((1,1-Dioxidotetrahydro-2h-thiopyran-4-yl)(propyl)amino)-3-(3-(p-tolyl)ureido)phenyl)pentanoic acid], below 7.30.

Consider `CCN(c1ccc(C(CC(=O)O)C2CC2)cc1Nc1ccc(Cl)cc1)C1CCOCC1` (single isomer, unassigned) [Example 33 Enantiomer 2, 3-(3-((4-Chlorophenyl)amino)-4-(ethyl(tetrahydro-2H-pyran-4-yl)amino)phenyl)-3-cyclopropylpropanoic acid], for which the pIC50 is above 8.30. `CCN(c1ccc(C(CC(=O)O)C2CC2)cc1Nc1cnc(OC)nc1)C1CCOCC1` (single isomer, unassigned) [Example 38, 3-cyclopropyl-3-(4-(ethyl(tetrahydro-2H-pyran-4-yl)amino)-3-((2-methoxypyrimidin-5-yl)amino)phenyl) propanoic acid] showed a pIC50 above 7.30. Turning to `CCOc1ncc(Nc2cc(C(CC(=O)O)C3CC3)ccc2N(CC)C2CCOCC2)cn1` (single isomer, unassigned) [Example 39, 3-cyclopropyl-3-(3-((2-ethoxypyrimidin-5-yl)amino)-4-(ethyl(tetrahydro-2H-pyran-4-yl)amino)phenyl)propanoic acid], the pIC50 is above 7.30.
